Test results published in DBAASP.
In brackets after ≈: the same amount, converted by molar mass. Each block holds one molecule with its values, some of them ahead of it.

Experiments:
Assay in all cases: ≥ marks a high value that may be exact or a test limit, other limits are often not marked, values filed in µg/mL are converted to µM
[1] = system: Staphylococcus aureus KCTC 1621
[2] = system: Staphylococcus epidermidis KCTC 1917
Enterococcus faecalis VR = system: Enterococcus faecalis VR
Enterococcus faecium VR = system: Enterococcus faecium VR
[3] = system: Bacillus subtilis KCTC 3068
[4] = system: Salmonella typhimurium KCTC 1926
Staphylococcus aureus MR = system: Staphylococcus aureus MR
Enterococcus faecalis = system: Enterococcus faecalis
[5] = system: Escherichia coli KCTC 1682
[6] = system: Pseudomonas aeruginosa KCTC 1637
Enterococcus faecium = system: Enterococcus faecium
[7] = system: Staphylococcus aureus ATCC 29213
[8] = system: Staphylococcus aureus ATCC BAA-44
[9] = system: Candida albicans ATCC 10231
[10] = system: Pseudomonas aeruginosa ATCC BAA-427
Cryptococcus neoformans = system: Cryptococcus neoformans
[11] = system: Klebsiella pneumoniae ATCC 27736
[12] = system: Escherichia coli ATCC 9637
[13] = system: Staphylococcus aureus ATCC 700699
Sporothrix schenckii = system: Sporothrix schenckii
[14] = system: Staphylococcus aureus ATCC 33592
[15] = system: Staphylococcus aureus ATCC 700698
[16] = system: Candida parapsilosis ATCC 22019
[17] = system: Staphylococcus aureus ATCC 25923
[18] = system: Bacillus subtilis ATCC 6633
Escherichia coli UB1005 = system: Escherichia coli UB1005
Bacillus cereus C737 = system: Bacillus cereus C737
[19] = system: Pseudomonas aeruginosa PAO1
[20] = system: Klebsiella pneumoniae ATCC 700603
[21] = system: Staphylococcus aureus ATCC 9144
[22] = system: Escherichia coli ATCC 23506
[23] = system: Acinetobacter baumannii ATCC 19606
[24] = system: Pseudomonas aeruginosa ATCC 9027
[25] = system: Aspergillus niger ATCC 16404
[26] = system: Streptococcus pneumoniae ATCC 49619
[27] = system: Escherichia coli ATCC 25922
[28] = system: Enterococcus faecalis PCM 2673
[29] = system: Candida glabrata ATCC 15126
[30] = system: Bacillus subtilis ATCC 6051
[31] = system: Vibrio anguillarum ATCC 43305
[32] = system: Pseudomonas aeruginosa ATCC 27853
[33] = system: Staphylococcus aureus USA 300
[34] = system: Staphylococcus aureus USA 300 LAC
[35] = system: Klebsiella pneumoniae ATCC 13883

SMILES: CC(C)C[C@H](NC(=O)[C@H](CO)NC(=O)[C@H](CC(C)C)NC(=O)[C@H](CS)NC(=O)[C@H](CC(N)=O)NC(=O)[C@H](C)NC(=O)[C@H](C)N)C(=O)NCC(=O)N[C@@H](CCCCN)C(=O)N[C@@H](C)C(N)=O [AANCLSLGKA]
MIC [1]: 30 µM (≈ 28.4 µg/mL)
MIC [2]: 30 µM (≈ 28.4 µg/mL)
MIC (Enterococcus faecalis VR): 30 µM (≈ 28.4 µg/mL)
MIC (Enterococcus faecium VR): 30 µM (≈ 28.4 µg/mL)
MIC [3]: 30 µM (≈ 28.4 µg/mL)
MIC [4]: 30 µM (≈ 28.4 µg/mL)
MIC (Staphylococcus aureus MR): 30 µM (≈ 28.4 µg/mL)
MIC (Enterococcus faecalis): 30 µM (≈ 28.4 µg/mL)
MIC [5]: 30 µM (≈ 28.4 µg/mL)
MIC [6]: 30 µM (≈ 28.4 µg/mL)
MIC (Enterococcus faecium): 30 µM (≈ 28.4 µg/mL)

SMILES: CC[C@H](C)[C@H](NC(=O)[C@H](C)NC(=O)[C@H](CCCCN)NC(=O)CNC(=O)[C@H](C)NC(=O)[C@H](Cc1cnc[nH]1)NC(=O)[C@@H](NC(=O)[C@H](C)NC(=O)[C@@H]1CCCN1C(=O)[C@H](CCCCN)NC(=O)[C@@H](NC(=O)[C@H](CC(C)C)NC(=O)[C@H](Cc1c[nH]c2ccccc12)NC(=O)CNC(=O)[C@H](Cc1ccccc1)NC(=O)[C@@H](N)Cc1ccccc1)[C@@H](C)CC)[C@@H](C)CC)C(=O)N[C@@H](Cc1cnc[nH]1)C(=O)NCC(=O)N[C@@H](CC(C)C)C(=O)N[C@H](C(=O)N[C@@H](Cc1cnc[nH]1)C(=O)N[C@@H](CCCN=C(N)N)C(=O)N[C@@H](CCCN=C(N)N)C(=O)N[C@@H](CCCN=C(N)N)C(=O)N[C@@H](Cc1cnc[nH]1)C(=O)O)[C@@H](C)CC [FFGWLIKPAIHAGKAIHGLIHRRRH]
MIC [7]: 1.6 µM (≈ 4.69 µg/mL)
MIC [8]: 1.6 µM (≈ 4.69 µg/mL)
MIC [9]: 3 µM (≈ 8.8 µg/mL)
MIC [10]: 6.8 µM (≈ 19.9 µg/mL)
MIC (Cryptococcus neoformans): 6.8 µM (≈ 19.9 µg/mL)
MIC [11]: 3.3 µM (≈ 9.68 µg/mL)
MIC [12]: 3.3 µM (≈ 9.68 µg/mL)
MIC [13]: 1.6 µM (≈ 4.69 µg/mL)
MIC (Sporothrix schenckii): 13.6 µM (≈ 39.9 µg/mL)
MIC [14]: 0.8 µM (≈ 2.35 µg/mL)
MIC [15]: 1.6 µM (≈ 4.69 µg/mL)
MIC [16]: 6.8 µM (≈ 19.9 µg/mL)
MIC [17]: 3 µM (≈ 8.8 µg/mL)
MIC [18]: 3 µM (≈ 8.8 µg/mL)

SMILES: CC[C@H](C)[C@H](NC(=O)[C@H](CC(=O)O)NC(=O)[C@H](Cc1ccccc1)NC(=O)[C@H](CC(C)C)NC(=O)CN)C(=O)N[C@H](C(=O)N[C@@H](CCCCN)C(=O)N[C@@H](CCCCN)C(=O)N[C@H](C(=O)N[C@H](C(=O)NCC(=O)N[C@@H](C)C(=O)N[C@H](C(=O)NCC(=O)N[C@@H](CO)C(=O)N[C@@H](CC(C)C)C(N)=O)C(C)C)C(C)C)C(C)C)C(C)C [GLFDIVKKVVGAVGSL]
MIC (Escherichia coli UB1005): ≥ 40 µM
MIC (Bacillus cereus C737): ≥ 79.9 µM
MIC [19]: > 79.9 µM

SMILES: CC[C@H](C)[C@H](NC(=O)[C@H](CC(C)C)NC(=O)[C@H](CCCN=C(N)N)NC(=O)[C@H](Cc1c[nH]c2ccccc12)NC(=O)[C@@H]1CCCN1C(=O)[C@H](Cc1c[nH]c2ccccc12)NC(=O)[C@H](Cc1c[nH]c2ccccc12)NC(=O)[C@@H]1CCCN1C(=O)[C@H](Cc1c[nH]c2ccccc12)NC(=O)[C@H](CCCN=C(N)N)NC(=O)[C@H](CCCN=C(N)N)NC(=O)[C@@H](N)CCCCN)C(N)=O [KRRWPWWPWRLI]
MIC [20]: 2.25 µM (≈ 4 µg/mL)
MIC [9]: 18 µM (≈ 32 µg/mL)
MIC [21]: 4.49 µM (≈ 8 µg/mL)
MIC [22]: 2.25 µM (≈ 4 µg/mL)
MIC [23]: 8.99 µM (≈ 16 µg/mL)
MIC [24]: 2.25 µM (≈ 4 µg/mL)
MIC [25]: ≥ 36 µM
MIC [17]: 4.49 µM (≈ 8 µg/mL)
MIC [26]: 4.49 µM (≈ 8 µg/mL)
MIC [27]: 4.49 µM (≈ 8 µg/mL)
MIC [28]: 8.99 µM (≈ 16 µg/mL)
MIC [29]: ≥ 36 µM

Continued, values first:

MIC [30]: ≥ 32 µM
MIC [23]: 8 µM (≈ 22.9 µg/mL)
MIC [31]: ≥ 32 µM
MIC [17]: > 32 µM
MIC [27]: 11.3 µM (≈ 32.4 µg/mL)
MIC [32]: > 32 µM
SMILES: CC(C)C[C@H](N)C(=O)N[C@@H](CCCN=C(N)N)C(=O)N[C@@H](Cc1c[nH]c2ccccc12)C(=O)N[C@H](C(=O)N1CCC[C@H]1C(=O)N[C@H](C(=O)N1CCC[C@H]1C(=O)N[C@@H](CO)C(=O)N[C@@H](Cc1ccc(O)cc1)C(=O)N1CCC[C@H]1C(=O)N[C@@H](CCCN=C(N)N)C(=O)N[C@@H](Cc1ccc(O)cc1)C(=O)N1CCC[C@H]1C(=O)N[C@H](C(=O)N[C@@H](CCCN=C(N)N)C(=O)N[C@@H](CO)C(=O)N[C@@H](CCCN=C(N)N)C(=O)NCC(=O)N[C@@H](CO)C(=O)N[C@@H](CCCN=C(N)N)C(=O)N[C@@H](Cc1c[nH]c2ccccc12)C(=O)N[C@@H](CO)C(=O)N[C@@H](CCCN=C(N)N)C(N)=O)[C@@H](C)O)[C@@H](C)O)[C@@H](C)O [LRWTPTPSYPRYPTRSRGSRWSR]

MIC [33]: 6.2 µM (≈ 7.88 µg/mL)
MIC [34]: 6.2 µM (≈ 7.88 µg/mL)
MIC [19]: 6.2 µM (≈ 7.88 µg/mL)
MIC [27]: 25 µM (≈ 31.8 µg/mL)
MIC [35]: 25 µM (≈ 31.8 µg/mL)
SMILES: CC[C@H](C)[C@H](NC(=O)[C@H](CCCN=C(N)N)NC(=O)[C@H](CCCN=C(N)N)NC(=O)[C@H](CC(C)C)NC(=O)[C@H](Cc1c[nH]c2ccccc12)NC(=O)[C@H](CCCN=C(N)N)NC(=O)[C@@H](N)Cc1c[nH]c2ccccc12)C(=O)N[C@@H](Cc1c[nH]c2ccccc12)C(N)=O [WRWLRRIW]
